This is an account of results in patent publication US12290521B2, “Methods and materials for identifying and treating BET inhibitor-resistant cancers” (Mayo Foundation for Medical Education and Research, priority 2018, dated 2025).

Assay type in all cases: cell-based, human
The subject of assay [1] is prostate cancer patient-derived organoid lines. As to the kind of experiment: Organoid cell viability assay (2D and 3D). The conditions noted are these: SPOP W131R-expressing organoid compared to two SPOP WT counterparts; 2D and 3D growth. Here is the method:
Organoid cells were obtained from Dr. Yu Chen from MSKCC and cultured according to the methodology as described elsewhere (Drost et al., Nat. Protoc., 11:347-358 (2016)). In brief, organoid cells were imbedded in 40 μL Matrigel each drop and cultured in FBS free DMEM/F12 medium supplied with several growth factors. Cell viability assays were conducted by plating 2,000 organoid cells per well of a collagen coated 96-well cell culture plate in […] media with vehicle (DMSO) control or JQ1 (0.05˜1 μM). Viable cells were counted by using a CellTiter-Glo (Promega) Luminescent Cell Viability Assay Kit.

For assay [2], the system named is BRD4. As to the kind of experiment: ChIP-seq and ChIP-qPCR of BRD4 binding in C4-2 cells. The settings on record: control and SPOP-F133V C4-2 cells; JQ1 1 μM, 24 hours. Here is the method: ChIP was performed as described elsewhere (Boyer et al., Cell, 122:947-956 (2005)). ChIP-seq libraries were prepared using the methods as described elsewhere (Boyer et al., Cell, 122:947-956 (2005)), and high throughput sequencing was performed using the Illumina HiSeq2000 platforms. The data were analyzed using the following pipeline: ChIP-seq raw reads were aligned to the human reference genome (GRCh37/hg19) using Bowtie2 (2.2.9), and reads mapped to one or two locations were kept for further analysis. Peak calling was performed by MACS2 (2.1.1) with p-value threshold of 1e-5. BigWig files were generated for visualization with the UCSC genome browser or IGV. GREAT (bejerano.stanford.edu/great/public/html/) was used to assign peaks to their potential target genes (a peak-gene association was determined if the peak fell into 2 kb region centering on the transcription start site of the gene). The common BRD4 target genes induced by SPOP F133V and HA-BRD4 expression were determined independently in each of two biological repeat experiments. Raw and processed data were deposited into NCBI Gene Expression Omnibus with accession number GSE88872.
For ChIP-qPCR experiments, DNAs pulled down by antibodies or non-specific IgG were amplified by real-time PCR. […]
In general terms: Quantitative PCR measures a nucleic acid by following its amplification.

Another assay has as its system DU145 cells. As to the kind of experiment: Cell proliferation (MTS assay). The conditions noted are these: JQ1 2 μM. The protocol: Cell proliferation was measured by using the MTS assay (Promega). Prostate cancer cells (2,000 per well) were seeded in 96-well plates with 100 μL of culture medium. Each well was added with 20 μL of CellTiter 96R AQueous One Solution Reagent (Promega) and absorbance was measured in a microplate reader at 490 nm.
The cells then were treated with vehicle (DMSO), a CBP/p300 inhibitor (CPI-637; iCBP; 20 μM), or a BET inhibitor (JQ1; 2 μM) alone or a combination of CPI-637 and JQ1. After 72 hours, cells were subjected to measurement of cell growth by an MTS assay. In each cell type (EV and F133V), the OD value in each group was normalized by the value in the control (vehicle) group.
For orientation: Formazan colour is commonly taken as a measure of viable cells.

Assay [3] concerns BRD4. As to the kind of experiment: Western blot of BRD4 protein, ubiquitination and half-life in DU145 cells. The conditions noted are these: DU145 cells; JQ1, 24 hours. Here is the method:
Co-Immunoprecipitation (Co-IP) Cells were harvested and lysed by IP buffer (50 mM Tris-HCl, pH 7.4, 150 mM NaCl, 1% Triton X-100, 1% sodium deoxycholate and 1% protease inhibitor cocktails) on ice for more than 15 minutes. Cell lysate was centrifuged for 15 minutes at 13,000 rpm at 4° C., and the supernatant was incubated with primary antibodies and protein A/G agarose beads (Thermo Fisher Scientific) with rotating at 4° C. overnight. The next day, the pellet was washed at least six times with 1×IP buffer on ice, and then subjected to western blotting analysis. Western Blotting
Cells were harvested and lysed by IP buffer (50 mM Tris-HCl, pH 7.4, 150 mM NaCl, 1% Triton X-100, 1% sodium deoxycholate and 1% protease inhibitor cocktails) on ice for more than 15 minutes. Cell lysate was centrifuged for 15 minutes at 13,000 rpm at 4° C., and the supernatant was quantified by BCA protein quantification assay. Equal amounts of protein sample were added into 4× sample buffer and boiled for 5 minutes. The sample was subjected to SDS-PAGE analysis and transferred to nitrocellulose membrane. The membrane was blocked by 5% milk for 1 hour at room temperature and incubated with primary antibody at 4° C. overnight. The next day, the membrane was washed three times with 1×TBST and incubated with horseradish peroxidase-conjugated secondary antibodies for 1 hour at room temperature. The protein bands were visualized by SuperSignal West Pico Stable Peroxide Solution (Thermo Fisher Scientific).
For orientation: Immunoblotting shows a protein as a band on a membrane.

Molecules are shown by their SMILES.

In the case of `Cc1sc2c(c1C)C(c1ccc(Cl)cc1)=N[C@@H](CC(=O)OC(C)(C)C)c1nnc(C)n1-2` [JQ1], the “sensitivity of organoid to JQ1” value in assay [1] was “resistant”. In the assay with BRD4 [2], the “BRD4 binding in the AR gene promoter” value was “largely decreased” and the “BRD4 binding in the MYC gene enhancer” value is listed as “substantial reduction”. Further, in the assay on DU145 cells (DUB3-knockdown DU145 cells versus control knockdown cells), the “sensitivity of cell growth to JQ1” value is recorded as “much more sensitive”. Also, the “resistance of cell growth by DUB3 overexpression” value in the assay with DU145 cells (DUB3-overexpressing DU145 cells) is recorded as “conferred resistance”. Further, the “sensitivity of cell growth to JQ1” value with DU145 cells (SPOP F133V-expressing DU145 cells) was “JQ1 resistance”. Also, the “sensitivity of cell growth to JQ1 after DUB3 knockdown” value with DU145 cells (SPOP-F133V cells with DUB3 shRNA) is recorded as “sensitized”. In the assay with BRD4 [3], the BRD4 polyubiquitination entry is on record as “markedly inhibited”.
